Here are results for four molecules from patent US20070196491A1, “DRUG DELIVERY SYSTEMS COMPRISING WEAKLY BASIC DRUGS AND ORGANIC ACIDS” (EURAND, INC., priority 2006, published 2007).

≈ marks a conversion by molar mass, not a printed value. Where a name gives a salt, the structure may show the parent alone. Read-outs that look alike come from different tables or passages of the source.

For data set [1] the following is noted: cited from earlier work.
Data set [2] can be described thus: Solubilities of weakly basic drugs in organic acid buffers.
For data set [3] the following is noted: pH 2.14.
The conditions of data set [4]: intestinal regions; cited from earlier work.

Take `Cc1nccn1CC1CCc2c(c3ccccc3n2C)C1=O` (stereo not shown) [Ondansetron Hydrochloride, Ondansetron hydrochloride]: the “solubility (in words)” value in data set [1] (at a pH of 6.8) is reported as “practically insoluble”; in data set [1] (at acidic pHs) it was “fairly soluble”. The “Solubility of Ondansetron Hydrochloride” value was 26100 µg/mL in data set [2] (fumaric acid 0.0025 mg/mL, start pH 4.15, end pH 4.33); 26100 µg/mL in data set [2] (fumaric acid 0.01 mg/mL, start pH 3.64, end pH 4.05); 26200 µg/mL in data set [2] (fumaric acid 0.25 mg/mL, start pH 2.79, end pH 2.75); 26100 µg/mL in data set [2] (fumaric acid 1 mg/mL, start pH 2.48, end pH 2.40); 26900 µg/mL in data set [2] (fumaric acid 5 mg/mL, start pH 2.13, end pH 2.01); 27000 µg/mL in data set [3].

As to `O=C1CN=C(c2ccccc2Cl)c2cc([N+](=O)[O-])ccc2N1` [Clonazepam], in data set [2] (pH of buffer 4.8), the “Solubility (mg/mL) of Clonazepam in Fumaric Acid” value turned out to be 0.0095 mg/mL.

With `COc1ccccc1OCCNCC(O)COc1cccc2[nH]c3ccccc3c12` (racemic) [Carvedilol], the figures for the aqueous solubility in data set [1] (above a pH of 9), in data set [1] (at a pH 5) and in data set [1] (at a pH of 7) were < 1 µg/mL, “about 100 μg/mL” and “about 23 μg/mL”, respectively. For the same molecule, the “in vivo absorption within the intestine, decreasing order” value in data set [4] was “jejunum>ileum>colon”. Moreover, the solubility amounted to 2510 µg/mL (≈ 6170 µM) in “physchem” (pH 2.12, aqueous buffer); 1360 µg/mL (≈ 3350 µM) in “physchem” (pH 2.28, aqueous buffer); 731 µg/mL (≈ 1800 µM) in the data set “physchem” (pH 2.54, aqueous buffer); 508 µg/mL (≈ 1250 µM) in “physchem” (pH 2.94, aqueous buffer); 121 µg/mL (≈ 298 µM) in the data set “physchem” (pH 3.64, aqueous buffer); 105 µg/mL (≈ 258 µM) in the data set “physchem” (pH 5.46, aqueous buffer). In the data set “physchem” (pH 5.9, aqueous buffer), this molecule had a solubility of 28 µg/mL (≈ 68.9 µM).

For the molecule `OCCN(CCO)c1nc(N2CCCCC2)c2nc(N(CCO)CCO)nc(N3CCCCC3)c2n1` [Dipyridamole], the “solubility (in words)” value in data set [1] (in dilute acids) is given as “soluble”; in data set [1] (in water, neutral and alkaline buffers), “practically insoluble”.
